Where two headings read alike, the source gives them in different places.
Tests used:
[1] = system: spinal nerve ligation model; test: Test of spinal nerve ligation model (von Frey hair test); format: in vivo, rat; settings: read-out: Improvement rate % (dose)
Protocol: The test was carried out in accordance with Pain, 1992, Vol. 50, p. 355-363. The lumbar skin and muscle of a rat (SD, male, 5- to 6-week old) were incised under pentobarbital anesthesia and the transverse processes of lumbar L6 were removed to expose lumbar nerves. The L5 and L6 spinal nerves were ligated with silk thread and then the wound was sutured. The treatment was performed on the left side. However, in a case of a pseudo-operation, the wound was sutured without carrying out the nerve ligation.
Drug efficacy evaluation was carried out by a von Frey hair test 7 to 20 days after the operation. The withdrawal response threshold was calculated in accordance with Journal of Neuroscience Methods, 1994, Vol. 53, p. 55-63. The plantar of hindlimb was stimulated using 8 kinds of von Frey filaments (0.41 to 15.14 g), and 50% withdrawal response thresholds were determined by an up-and-down method. The test was initiated from 2.04 g of the filament, and a case where the withdrawal response of the limb was observed was taken as presence of the response.
On the previous day of the drug efficacy evaluation, the animals showing reduction in the thresholds according to a von Frey hair test were preliminarily selected and grouped such that the difference in the average values of the thresholds between the respective groups was reduced.
The test substance was suspended in a 0.5% methylcellulose solution and administered orally 2 hours before the drug efficacy evaluation. The evaluation of the test substance was carried out by determining the improvement rate of the group administered with the test substance when the threshold of the limb on the treatment side in the pseudo-operation animal group was taken as 100% and the threshold of the limb on the treatment side in an operated animal group administered with a solvent was taken as 0%.

rat recombinant 11β-HSD1 = rat recombinant 11β-HSD1 (Rattus norvegicus (Rat), UniProt P16232); test: Measurement test for rat 11β-HSD1 inhibitory activity (HTRF cortisol detection); format: biochemical; settings: rat recombinant 11β-HSD1, 200 nM cortisone, 40 μM NADPH, pH 6.6, room temperature 1 hour
rat recombinant 11β-HSD1, sequence (P16232 whole entry): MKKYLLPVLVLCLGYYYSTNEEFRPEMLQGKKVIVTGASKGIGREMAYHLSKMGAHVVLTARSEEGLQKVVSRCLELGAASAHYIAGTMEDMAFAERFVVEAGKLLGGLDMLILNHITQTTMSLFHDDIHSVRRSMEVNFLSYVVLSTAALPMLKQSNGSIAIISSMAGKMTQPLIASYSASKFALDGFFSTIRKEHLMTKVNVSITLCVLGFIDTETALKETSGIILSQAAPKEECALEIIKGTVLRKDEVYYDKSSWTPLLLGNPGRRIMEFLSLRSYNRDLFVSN
Protocol: The procedure for measuring the 11β-HSD1-inhibitory activity is as follows. The enzyme reaction and the measurement were carried out using a 384-well plate. The enzyme was prepared in accordance with Journal of Biological Chemistry, 2001, Vol. 276, p. 21343-21350. The reaction was carried out by adding a test compound at various concentrations to a reaction liquid consisting of a 5 mM phosphate buffer (pH 6.6), 200 nM cortisone, 40 μM reduced nicotinamide adenine dinucleotide phosphate (NADPH), and rat recombinant 11β-HSD1, followed by incubating at room temperature for one hour (10 μl/well). The test compound was prepared by dissolving in dimethyl sulfoxide (DMSO) such that a DMSO concentration reached 1% in the reaction liquid. After the enzyme reaction was completed, the enzyme inhibitory action was measured by detecting cortisol using a homogeneous time-resolved fluorescence (HTRF) method. Each of a d2-labeled cortisol containing 400 μM carbenoxolone and a cryptate-labeled cortisol antibody (CIS Bio International Co., Ltd.) was added at 5 μl/well, followed by incubating at room temperature for 2 hours, and then the fluorescence intensity was measured using a fluorophotometer (trade name: ARVO HTS 1420, Perkin Elmer/Wallac), and the enzyme inhibitory activity was calculated from the fluorescence intensity ratio of two wavelengths (665 nm/620 nm).
The measurement results were calculated by averaging the values of 3 wells of the same condition. The ratio when DMSO was added instead of the test compound was taken as 0% and the ratio when 11β-HSD1 was not added was taken as 100%, thereby calculating the 50% inhibition concentration of the test compound as IC50 of the compound inhibitory activity.

[2] = system: fibromyalgia model induced by repeated administration of reserpine; test: Test of fibromyalgia model induced by repeated administration of reserpine (muscle pressure pain threshold); format: in vivo; settings: 1 mg/kg oral, maximum among 30, 60 and 120 min after administration, normal rat = 100%, reserpine + solvent = 0%, SD rat
Protocol: The test was carried out in accordance with Pain, 2009, Vol. 146, p. 26-33. Rats (SD, male, 7 weeks old) were used.
The threshold measurement for the muscle pressure pain was carried out according to the method of Schafers et al. (Pain, 2003, Vol. 104, p. 579-588). The pressure stimulus gradually increasing up to 250 g was applied to the gastrocnemius muscle of the right hindlimb of the rat. […] The measurements were carried out in triplicate for each point of time and the average thereof was taken as a measured value.
A solvent (0.5% acetic acid/water) or reserpine at 1 mg/kg was subcutaneously administered on a dorsal subcutaneous part for 3 days once per day. The administration volume of the solvent or reserpine was taken as 1 mL per kg of a body weight of an animal. The muscle pressure pain thresholds of the respective rats were measured at 6 days after the initiation of the administration of the solvent or reserpine, and grouped such that the difference in the average values of the thresholds between the respective groups was reduced.
The drug efficacy evaluation was carried out the next day. The test substance was suspended in a 0.5% methylcellulose solution and the muscle pressure pain thresholds were measured 30, 60, and 120 minutes after oral administration. For the normal rats, drug administration was not carried out, and only the measurement of the muscle pressure pain thresholds was carried out. […] The evaluation of the test substance was carried out by determining the maximal improvement rate of the group administered with the test substance among at time points of 30, 60, and 120 minutes after the administration when the muscle pressure pain threshold of the normal rat is taken as 100% and the muscle pressure pain threshold of the rat treated with reserpine while administered with the solvent is taken as 0%.

[3] = 0.3 mg/kg oral, 2 hours before evaluation, 50% withdrawal response threshold, pseudo-operation group = 100%, operated solvent group = 0%, SD rat

Row | Structure (SMILES) | inhibition in vivo at 0.3 mg/kg [1, 3] [%] | IC50 (rat recombinant 11β-HSD1) [nM] | Maximum improvement rate % (dose) [2] | inhibition in vivo at 0.3 mg/kg ([1]; Rattus norvegicus, po, 2 h) [%]
1 | Cn1c(-c2ccc(F)cc2Br)nnc1C(C)(C)Oc1c(F)cc(F)cc1F [Compound 1] | 71 | 35 | – | –
2 | Cn1c(-c2c[nH]nc2C(F)(F)F)nnc1C(C)(C)Oc1c(F)cc(F)cc1F [Compound 7] | 73 | 32 | – | –
3 | CC(C)n1c(-c2ccc(C(N)=O)cc2)nnc1C(C)(C)Oc1c(F)cc(F)cc1F [Compound 9] | 78 | 26 | – | –
4 | Cn1c(-c2ccc(C(N)=O)cc2F)nnc1C(C)(C)Oc1c(F)cc(F)cc1F [Compound 12] | 54 | 182 | – | –
5 | CC(C)(Oc1ccc(F)cc1F)c1nnc(-c2ccc(C(N)=O)cc2F)n1C1CC1 [Compound 11] | 82 | 64 | 83 (1 mg/kg) % | –
6 | CC(C)n1c(-c2ccc(C(N)=O)cc2)nnc1C(C)(C)Oc1c(F)cc(Cl)cc1F [Compound 13] | 53 | 68 | – | –
7 | CC(C)(Oc1ccc(F)cc1F)c1nnc(-c2ccc(C(N)=O)cc2Cl)n1C1CC1 [Compound 14] | 73 | 16 | – | –
8 | Cl.Cn1c(-c2ccccc2Cl)nnc1C(C)(C)Oc1c(F)cc(Cl)cc1F [Compound 4] | 85 | 32 | 82 (1 mg/kg) % | –
9 | Cn1c(-c2ccccc2Cl)nnc1C(C)(C)Oc1c(F)cc(F)cc1F [Compound 3] | 62 | 24 | – | –
10 | Cn1c(-c2ccc(F)cc2Cl)nnc1C(C)(C)Oc1c(F)cc(Cl)cc1F [Compound 5] | 65 | 263 | – | –
11 | Cn1c(-c2ccc(C(N)=O)cc2F)nnc1C(C)(C)Oc1c(F)cc(Cl)cc1F [Compound 10] | 81 | – | 65 (1 mg/kg) % | –
12 | CCn1c(-c2ccc(C(N)=O)cc2)nnc1C(C)(C)Oc1c(F)cc(Cl)cc1F [Compound 8] | – | – | 41 (1 mg/kg) % | 87
13 | CC(C)n1c(-c2ccc(C(N)=O)cc2F)nnc1C(C)(C)Oc1c(F)cc(F)cc1F [Compound 15] | – | – | 45 (1 mg/kg) % | 86
14 | Cn1c(-c2ccc(F)cc2Cl)nnc1C(C)(C)Oc1c(F)cc(F)cc1F [Compound 2] | – | – | 30 (1 mg/kg) % | 88
15 | Cn1c(-c2ccccc2F)nnc1C(C)(C)Oc1c(F)cc(F)cc1F [Compound 6] | 52 | 322 | – | –

Reference: patent publication US9765040B2, “Therapeutic agent for pain” (Astellas Pharma Inc., priority 2010, dated 2017)
